The values that follow come from US6121323A, “Bishydroxyureas” (3M Innovative Properties Company, priority 1997, dated 2000).

One test deals with T1, 5-lipoxygenase (Homo sapiens, UniProt P09917).
T1 construct: endogenous in cells; host or cells: leukocytes from whole human blood (EDTA, dextran sedimentation, hypotonic lysis)
T1 sequence (P09917 1-674): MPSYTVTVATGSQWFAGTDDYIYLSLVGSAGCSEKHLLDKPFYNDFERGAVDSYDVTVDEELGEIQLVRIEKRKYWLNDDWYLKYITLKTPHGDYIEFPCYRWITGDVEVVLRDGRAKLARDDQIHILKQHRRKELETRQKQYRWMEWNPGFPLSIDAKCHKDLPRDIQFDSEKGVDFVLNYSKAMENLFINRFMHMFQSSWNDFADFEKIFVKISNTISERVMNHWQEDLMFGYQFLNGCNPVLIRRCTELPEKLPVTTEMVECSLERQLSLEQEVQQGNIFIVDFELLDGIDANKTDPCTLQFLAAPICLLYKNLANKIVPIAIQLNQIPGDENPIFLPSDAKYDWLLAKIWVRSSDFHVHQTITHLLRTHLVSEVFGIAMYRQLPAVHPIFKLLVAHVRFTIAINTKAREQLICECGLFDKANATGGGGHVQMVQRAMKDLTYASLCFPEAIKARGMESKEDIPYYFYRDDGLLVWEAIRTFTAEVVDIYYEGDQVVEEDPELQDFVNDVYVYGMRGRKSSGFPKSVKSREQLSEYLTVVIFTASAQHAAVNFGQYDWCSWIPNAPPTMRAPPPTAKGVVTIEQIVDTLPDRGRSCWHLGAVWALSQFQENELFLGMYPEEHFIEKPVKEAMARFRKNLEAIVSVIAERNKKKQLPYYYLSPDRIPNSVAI
Put plainly: 5-Lipoxygenase inhibition in human leukocytes (LTC4 by radioimmunoassay). Format: cell-based. The note with it: A23187 stimulated, LTC4 readout, read-out: IC50 (concentration producing 50% leukotriene biosynthesis inhibition). On the procedure: 5-LIPOXYGENASE INHIBITION IN HUMAN LEUKOCYTES
The test method described below measures the ability of compounds of the invention to inhibit 5-lipoxygenase activity in human leukocytes.
Whole human blood is collected by venipuncture into EDTA (1.4 mL of 0.25M per 60 mL of whole blood). The red blood cells are sedimented with a 6% dextran/0.9% sodium chloride solution at a ratio of 25 mL whole blood to 15 mL dextran solution. The blood/dextran combination is mixed by inversion and the red blood cells are allowed to settle out for 45 minutes at ambient temperature. The plasma/dextran supernatant is removed then centrifuged at ambient temperature at 3000 rpm for 10 minutes. The plasma/dextran supernatant is removed and the cells are resuspended in 10 mL of the plasma/dextran solution. The cell suspension is combined with 20 mL of water, mixed for 1.5 minutes then immediately combined with 10 mL of 3.6% sodium chloride, mixed and centrifuged at ambient temperature at 3000 rpm for 10 minutes. The pellet is washed with 40 mL of Tris buffer (5.55 mM dextrose, 15.36 mM Tris base, 136.9 mM sodium chloride with pH 7.3-7.4) then centrifuged at 3000 rpm for 10 minutes. The pellet is then resuspended into Tris buffer containing 1 mM calcium chloride to provide approximately 1.0×10^7 cells/mL.
Compounds are dissolved in dimethyl sulfoxide. Compounds are tested at concentrations of 100, 33, 11, 3.7, 1.2 and 0.41 μM. Each concentration is tested in duplicate.
A 15 μL portion of Tris buffer containing 1 mM calcium chloride is added to each well of a 96 well microtiter plate. A 1 μL portion of drug solution or vehicle (dimethyl sulfoxide) is added to each well followed by the addition of a 75 μL portion of the cell suspension. The plates are gently mixed then allowed to stand at ambient temperature for 10 minutes. A 10 μL portion of 30 μM A23187 Calcium Ionophore (prepared by dissolving the ionophore in DMSO and then diluting 1:80 into the Tris buffer) is added to each well except the wells that contain the blanks. The blank wells measure the level of LTC4 production in the absence of A23187. The plates are gently mixed then incubated at 37° C. for 10 minutes.
Following incubation the plates are centrifuged at 2000 rpm for 1.5 minutes and the supernatant is removed as quickly as possible to stop the reaction. The supernatants are frozen at -20° C. until they are assayed.
The supernatants are assayed for the presence of Leukotriene C4 by radioimmunoassay which is performed according to the manufacturer's instructions (Advanced Magnetics; Cambridge, Mass.). Inhibition of leukotriene biosynthesis is calculated as the ratio of the amount of LTC4 formed in the presence (LTC4 +cpd) and absence (LTC4 no cpd) of compound according to the following equation. [formula] IC50 values (concentrations of compound producing 50% leukotriene biosynthesis inhibition) are calculated by linear regression analysis of percentage inhibition versus log compound concentration plots.

For test [1], the system named is Leukotriene B4 production in whole human blood. Put plainly: In vitro human whole blood Leukotriene B4 inhibition. The format is cell-based. The note with it: A23187 stimulated, read-out: IC50 (concentration producing 50% inhibition of LTB4 production). On the procedure:
IN VITRO HUMAN WHOLE BLOOD LEUKOTRIENE B4 INHIBITION
The test method described below measures the ability of compounds to inhibit the production of Leukotriene B4 in whole human blood.
Whole human blood is collected by venipuncture into a 60 cc syringe containing 100 units of heparin.
compounds are disolved in dimethyl sulfoxide. Compounds are tested at concentrations of 100, 33, 11, 3.7, 1.2 and 0.41 μM. Each concentration is tested in duplicate.
Aliquots (1 μL) of compound solution are added to 1 mL polyethylene tubes followed by the addition of 500 μL portion of heparinized blood. The tubes are mixed thoroughly then allowed to preincubate at ambient temperature for 15 minutes. A 25 μL portion of 1 mM Calcium Ionophore A23187 in dimethyl sulfoxide/Tris buffer is added to the tubes. The tubes are mixed thoroughly then incubated at 37° C. for 30 minutes.
The tubes are centrifuged at 2000 rpm for 10 minutes. 100 μL portions of plasma are transferred to 1 mL polyethylene tubes containing 400 μL portions of methanol. The tubes are vortexed then frozen at -20° C. overnight.
The tubes are centrifuged for 10 minutes then 100 μL portions of methanol supernatant are transferred to a 96 well microtiter plate. 10 μL portions are transferred from this plate to a 96 well assay plate. Methanol dilutions of LTB4 standard curve are added to the assay plate. 10 μL portions of blank methanol/plasma supernatant are added to each standard curve well. The assay plate is vacuum dried at ambient temperature. The radioimmunoassay buffer is added, the plate is bath-sonicated for 5 minutes then assayed according to the manufacturer's instructions (Advanced Magnetics; Cambridge, Mass.). Inhibition of LTB4 production is calculated as the ratio of the amount of LTB4 formed in the presence (LTB4 +cpd) and absence (LTB4 no cpd) of compound according the equation below. [formula] IC50 values (concentration of compound producing a 50% inhibition of LTB4 production) are calculated by linear regression analysis of percentage inhibition versus log compound concentration plots.

Some results are limits rather than exact numbers.

For the compound `CCc1cc(Cc2cc(CC)c(NC(=O)N(C)O)c(CC)c2)cc(CC)c1NC(=O)N(C)O` [Example 4, 4,4'-Methylenebis(1-hydroxy-1-methyl-3-(2,6-diethylphenyl)urea)], the IC50 stood at 4220 nM at 5-lipoxygenase and 8200 nM in test [1].

`CN(O)C(=O)Nc1ccc(C(c2ccc(NC(=O)N(C)O)cc2)(C(F)(F)F)C(F)(F)F)cc1` [Example 5, 4,4'-(2,2-Hexafluoropropane)bis(1-hydroxy-1-methyl-3-phenylurea)]: the IC50 on 5-lipoxygenase came out at 24 nM; in test [1] it was 700 nM.

With `CN(O)C(=O)Nc1ccc(Oc2ccc(NC(=O)N(C)O)cc2)cc1` [Example 6, 4,4'-Oxybis(1-hydroxy-1-methyl-3-phenylurea)], the IC50 at 5-lipoxygenase was found to be 216 nM; in test [1], 500 nM.

As for `CN(O)C(=O)Nc1cccc(NC(=O)N(C)O)c1` [Example 7, 1,1'-(m-Phenylene)bis(3-hydroxy-3-methylurea)], the IC50 on 5-lipoxygenase was 5900 nM; in test [1], 550 nM.

As for `CN(O)C(=O)Nc1cccc2c(NC(=O)N(C)O)cccc12` [Example 8, 1,1'-(1,5-Naphthalene)bis(3-hydroxy-3-methylurea)], the IC50 at 5-lipoxygenase was determined as 5600 nM; in test [1], 700 nM.

`CN(O)C(=O)N[C@H]1CC[C@H](NC(=O)N(C)O)CC1` [Example 9, trans-1,4-Cyclohexanebis(3-hydroxy-3-methylurea)]: the IC50 on 5-lipoxygenase is over 10000 nM; in test [1], 17200 nM.

`O=C(NCCCCCCNC(=O)N(O)Cc1ccccc1)N(O)Cc1ccccc1` [Example 10, 1,1'-Hexamethylenebis(3-hydroxy-3-benzylurea)]: the values for the IC50 (on 5-lipoxygenase; in test [1]) were 100 nM and 2000 nM, respectively.

On to `COc1cc(-c2ccc(NC(=O)N(C)O)c(OC)c2)ccc1NC(=O)N(C)O` [Example 11], for which the IC50 on 5-lipoxygenase amounted to 100 nM; in test [1], 350 nM.
